Test results from patent US20240398757A1 (COCRYSTAL PHARMA, INC., priority 2022, published 2024).

These compounds were tested against T1, SARS2 protease (Severe acute respiratory syndrome coronavirus 2, UniProt P0DTD1) (assay: SARS-CoV-2 protease inhibition assay (SARS2 FRET protease assay)). Details: IC50 (μM), SARS2 protease 30 nM, peptide substrate 1.3 μM, 120 minutes at 37° C., compounds 20 μM to 0.075 nM.
T1 construct: SARS2 protease was added to a final concentration of 30 nM
Type: biochemical

Going from `CCCC[C@H](NC(=O)CC(O)(c1ccccc1)C(C)(C)c1cccc(Cl)c1)C(=O)N[C@@H](C[C@@H]1CCNC1=O)C(=O)C(=O)NCC` (stereo partly drawn) [Compound A261, (2S)-2-(4-(3-chlorophenyl)-3-hydroxy-4-methyl-3-phenylpentanamido)-N—((S)-4-(ethylamino)-3,4-dioxo-1-((S)-2-oxopyrrolidin-3-yl)butan-2-yl)hexanamide] to `CCCC[C@H](NC(=O)CC(O)(Cc1cccc(Cl)c1)c1ccccc1)C(=O)N[C@@H](C[C@@H]1CCNC1=O)C(=O)C(=O)NCC` (stereo partly drawn) [Compound A259, (2S)-2-(4-(3-chlorophenyl)-3-hydroxy-3-phenylbutanamido)-N—((S)-4-(ethylamino)-3,4-dioxo-1-((S)-2-oxopyrrolidin-3-yl)butan-2-yl)hexanamide], the IC50 falls from 1090 nM to 413 nM (2.6-fold).

First: O=C[C@H](C[C@@H]1CCNC1=O)NC(=O)[C@H](Cc1ccccc1)NC(=O)OCCCc1ccccc1 [Compound A277, 3-Phenylpropyl ((S)-1-oxo-1-(((S)-1-oxo-3-((S)-2-oxopyrrolidin-3-yl)propan-2-yl)amino)-3-phenylpropan-2-yl) carbamate]
Second: O=C[C@H](C[C@@H]1CCNC1=O)NC(=O)[C@H](Cc1ccccc1)NC(=O)O[C@@H](c1ccccc1)C(F)(F)c1cccc(Cl)c1 [Compound A253, (S)-2-(3-chlorophenyl)-2,2-difluoro-1-phenylethyl ((S)-1-oxo-1-(((S)-1-oxo-3-((S)-2-oxopyrrolidin-3-yl)propan-2-yl)amino)-3-phenylpropan-2-yl)carbamate]
The IC50 of the first is 110-fold higher: 218 nM for the first, 2 nM for the second.

Compared with `CCCC[C@H](NC(=O)OC(c1ccc(F)cc1)C1(c2cccc(Cl)c2)CC1)C(=O)N[C@@H](C[C@@H]1CCNC1=O)C(=O)C(=O)NC1CC1` (stereo partly shown) [Compound A76], `CCCC[C@H](NC(=O)OC(c1ccc(F)cc1)C1(c2cccc(F)c2)CC1)C(=O)N[C@@H](C[C@@H]1CCNC1=O)C(=O)C(=O)NC1CC1` (stereo partly shown) [Compound A71] is 4.2-fold higher in IC50: 53 nM for the first, 222 nM for the second. The first is the more potent here.

Compared with `CCCC[C@H](NC(=O)OC(c1ccccc1)C(C)(C)c1cccc(F)c1)C(=O)N[C@@H](C[C@@H]1CCNC1=O)C(=O)C(=O)NC1CC1` (stereo partly shown) [Compound A43], `CCCC[C@H](NC(=O)OC(c1ccccc1)C(C)(C)c1cccc(F)c1)C(=O)N[C@@H](C[C@@H]1CCNC1=O)C(=O)C(=O)NCC` (stereo partly shown) [Compound A68] is 9-fold lower in IC50: 260 nM for the first, 29 nM for the second.

First: CC(C)C[C@H](NC(=O)O[C@@H](c1ccccc1)C(F)(F)c1cccc(Cl)c1)C(=O)N[C@H](C=O)C[C@@H]1CCNC1=O [Compound A72, 2-(3-chlorophenyl)-2,2-difluoro-1-phenylethyl ((S)-4-methyl-1-oxo-1-(((S)-1-oxo-3-((S)-2-oxopyrrolidin-3-yl)propan-2-yl)amino)pentan-2-yl)carbamate]
Second: O=C[C@H](C[C@@H]1CCNC1=O)NC(=O)[C@H](CC(F)F)NC(=O)OC(c1ccccc1)C(F)(F)c1cccc(Cl)c1 (stereo partly drawn) [Compound A232, 2-(3-chlorophenyl)-2,2-difluoro-1-phenylethyl ((S)-4,4-difluoro-1-oxo-1-(((S)-1-oxo-3-((S)-2-oxopyrrolidin-3-yl)propan-2-yl)amino)butan-2-yl)carbamate]
The IC50 of the first is lower: under 0.01 nM for the first, 22 nM for the second. The first is the more potent here.

First: CCCC[C@H](NC(=O)OC(c1ccccc1)C(F)(F)c1cccc(Cl)c1)C(=O)N[C@@H](C[C@@H]1CCNC1=O)C(=O)c1nc2ccccc2s1 (stereo partly drawn) [Compound A238, 2-(3-chlorophenyl)-2,2-difluoro-1-phenylethyl ((S)-1-(((S)-1-(benzo[d]thiazol-2-yl)-1-oxo-3-((S)-2-oxopyrrolidin-3-yl)propan-2-yl)amino)-1-oxohexan-2-yl)carbamate]
Second: CCCC[C@H](NC(=O)O[C@H](c1ccccc1)C(F)(F)c1cccc(Cl)c1)C(=O)N[C@@H](C[C@@H]1CCNC1=O)C(=O)C(N)=O [Compound A248, (R)-2-(3-chlorophenyl)-2,2-difluoro-1-phenylethyl ((S)-1-(((S)-4-amino-3,4-dioxo-1-((S)-2-oxopyrrolidin-3-yl)butan-2-yl)amino)-1-oxohexan-2-yl)carbamate]
The IC50 of the first is 2900-fold higher: 1160 nM for the first, 0.4 nM for the second.

`CCC(CC)(c1cccc(Cl)c1)C(OC(=O)N[C@@H](CC(C)C)C(=O)N[C@@H](C[C@@H]1CCNC1=O)C(=O)C(=O)NC1CC1)c1ccc(Cl)cc1` (stereo partly shown) [Compound A44] and `CCC(CC)(c1cccc(Cl)c1)C(OC(=O)N[C@@H](CC(C)C)C(=O)N[C@@H](C[C@@H]1CCNC1=O)C(=O)C(=O)NC1CC1)c1cccc(Cl)c1` (stereo partly shown) [Compound A35] are within 1.5-fold of each other in IC50: 740 nM for the first, 1070 nM for the second.

`CC(C)C[C@H](NC(=O)OC(c1ccccc1)C(F)(F)c1cccc(F)c1)C(=O)N[C@@H](C[C@@H]1CCNC1=O)C(=O)C(=O)NC1CC1` (stereo partly shown) [Compound A10] and `O=C(N[C@@H](CC(F)F)C(=O)N[C@@H](C[C@@H]1CCNC1=O)C(=O)C(=O)NC1CC1)OC(c1ccccc1)C(F)(F)c1cccc(Cl)c1` (stereo partly drawn) [Compound A230, 2-(3-chlorophenyl)-2,2-difluoro-1-phenylethyl ((S)-1-(((S)-4-(cyclopropylamino)-3,4-dioxo-1-((S)-2-oxopyrrolidin-3-yl)butan-2-yl)amino)-4,4-difluoro-1-oxobutan-2-yl)carbamate] are within 1.5-fold of each other in IC50: 5 nM for the first, 7 nM for the second.

First: CC(C)C[C@H](NC(=O)OC(c1ccccc1)C(C)(C)c1cccc(Cl)c1)C(=O)N[C@H](C=O)C[C@@H]1CCCNC1=O (stereo partly shown) [Compound A42]
Second: CC(C)C[C@H](NC(=O)OC(c1cccc(F)c1)C(C)(C)c1cccc(Cl)c1)C(=O)N[C@H](C=O)C[C@@H]1CCNC1=O (stereo partly shown) [Compound A11]
The IC50 of the first is 90-fold higher: 9 nM for the first, 0.1 nM for the second. The second is the more potent here.

First: CC(C)C[C@H](NC(=O)OC(c1ccccc1)C(C)(C)c1cccc(F)c1)C(=O)NC(C)(C=O)C[C@@H]1CCNC1=O (stereo partly shown) [Compound A39]
Second: CC(C)C[C@H](NC(=O)O[C@@H](c1ccccc1)C(F)(F)c1cccc(C(C)C)c1)C(=O)N[C@H](C=O)C[C@@H]1CCNC1=O [Compound A275, (S)-2,2-difluoro-2-(3-isopropylphenyl)-1-phenylethyl ((S)-4-methyl-1-oxo-1-(((S)-1-oxo-3-((S)-2-oxopyrrolidin-3-yl)propan-2-yl)amino)pentan-2-yl)carbamate]
The IC50 of the first is 2300-fold higher: 2300 nM for the first, 1 nM for the second. The second is the more potent here.

Compared with `O=C(N[C@@H](CC1CCCCC1)C(=O)N[C@@H](C[C@@H]1CCNC1=O)C(=O)C(=O)NC1CC1)O[C@H](c1ccccc1)C(F)(F)c1cccc(Cl)c1` [Compound A175], `CCNC(=O)C(=O)[C@H](C[C@@H]1CCNC1=O)NC(=O)[C@H](CC1CCCCC1)NC(=O)O[C@@H](c1ccccc1)C(F)(F)c1cccc(Cl)c1` [Compound A120] is lower in IC50: 1360 nM for the first, under 0.01 nM for the second. The second is the more potent here.

`CCCC[C@H](NC(=O)OC(c1ccccc1)C(F)(F)c1cccc(Cl)c1)C(=O)N[C@@H](C[C@H]1CCNC1=O)C(=O)C(=O)NCC` (stereo partly shown) [Compound A185] and `CCCC[C@H](NC(=O)O[C@@H](c1ccccc1)C(F)(F)c1cccc(Cl)c1)C(=O)N[C@@H](C[C@@H]1CCNC1=O)C(=O)C(=O)NC1CC1` [Compound A115] are within 1.5-fold of each other in IC50: 910 nM for the first, 805 nM for the second.

Compared with `CCNC(=O)C(=O)[C@H](C[C@@H]1CCNC1=O)NC(=O)[C@H](CC1(CC)CCC1)NC(=O)O[C@H](c1ccccc1)C(F)(F)c1cccc(Cl)c1` [Compound A322], `CCNC(=O)C(=O)[C@H](C[C@@H]1CCNC1=O)NC(=O)[C@H](CC1(C)CCC1)NC(=O)O[C@@H](c1ccccc1)C(F)(F)c1cccc(Cl)c1` [Compound A327] is 3.1-fold higher in IC50: 1720 nM for the first, 5330 nM for the second.

First: CC(C)C[C@H](NC(=O)O[C@@H](c1cccc(Cl)c1)C1(c2cccc(Cl)c2)CCCCC1)C(=O)N[C@H](C=O)C[C@@H]1CCNC1=O [Compound A54]
Second: CC(C)C[C@H](NC(=O)OC(c1ccc(Cl)cc1)C1(c2cccc(Cl)c2)CCNCC1)C(=O)N[C@@H](C[C@@H]1CCNC1=O)C(=O)C(=O)NC1CC1 (stereo partly shown) [Compound A92]
The IC50 of the first is 8-fold lower: 140 nM for the first, 1120 nM for the second. The first is the more potent here.

First: O=C[C@H](C[C@@H]1CCCNC1=O)NC(=O)[C@H](CC1CCCCC1)NC(=O)OC(c1ccccc1)C(F)(F)c1cccc(Cl)c1 (stereo partly shown) [Compound A124]
Second: O=C[C@H](C[C@@H]1CCNC1=O)NC(=O)[C@H](CC1CCCCC1)NC(=O)O[C@@H](c1ccccc1)C(F)(F)c1cccc(F)c1 [Compound A126]
The IC50 of the first is higher: 0.1 nM for the first, under 0.01 nM for the second.

First: CC(C)C[C@H](NC(=O)OC(c1ccccc1)C(F)(F)c1cccc(Cl)c1)C(=O)NC(CN1CCNC1=O)C(=O)C(=O)NC1CC1 (stereo partly shown) [Compound A307]
Second: CC(C)C[C@H](NC(=O)O[C@@H](c1ccccc1)C(F)(F)c1cccc(Cl)c1)C(=O)N[C@@H](C[C@@H]1CCNC1=O)C(=O)C(N)=O [Compound A282, (S)-2-(3-chlorophenyl)-2,2-difluoro-1-phenylethyl ((S)-1-(((S)-4-amino-3,4-dioxo-1-((S)-2-oxopyrrolidin-3-yl)butan-2-yl)amino)-4-methyl-1-oxopentan-2-yl)carbamate]
The IC50 of the first is 4400-fold higher: 4440 nM for the first, 1 nM for the second.

First: CCCC[C@H](NC(=O)O[C@H](c1ccc(F)cc1)C(F)(F)c1cccc(Cl)c1)C(=O)N[C@H](C=O)C[C@@H]1CCNC1=O [Compound A160]
Second: CCC[C@H](NC(=O)O[C@@H](c1ccccc1)C(F)(F)c1cccc(Cl)c1)C(=O)N[C@H](C=O)C[C@@H]1CCNC1=O [Compound A153]
The IC50 of the first is 780-fold higher: 470 nM for the first, 0.6 nM for the second. The second is the more potent here.

Going from `CC(C)C[C@H]1C(=O)N[C@H](C[C@@H]2CCNC2=O)[C@H](O)N1C(=O)OC(c1ccccc1)C1(c2cccc(Cl)c2)CCNCC1` (stereo partly shown) [Compound A59] to `CCCC[C@H](NC(=O)O[C@@H](c1ccccc1)C(C)(C)c1cccc(Cl)c1)C(=O)N[C@H](C=O)C[C@@H]1CCNC1=O` [Compound A61], the IC50 falls from 16200 nM to under 0.1 nM.

First: CCCC[C@H](NC(=O)OC(c1cccc(F)c1)C(F)(F)c1cccc(Cl)c1)C(=O)N[C@@H](C[C@@H]1CCNC1=O)C(=O)C(=O)NC1CC1 (stereo partly shown) [Compound A106]
Second: CC(C)C[C@H](NC(=O)O[C@H](c1cccc(Cl)c1)C(C)(C)c1cccc(Cl)c1)C(=O)N[C@@H](C[C@@H]1CCNC1=O)C(=O)C(=O)NC1CC1 [Compound A147]
The IC50 of the first is 3.3-fold lower: 170 nM for the first, 558 nM for the second. The first is the more potent here.

`CCCC[C@H](NC(=O)O[C@H](c1ccccc1)C(F)(F)c1cccc(Cl)c1)C(=O)N[C@@H](C[C@@H]1CCNC1=O)C(O)S(=O)(=O)O` (stereo partly shown) [Compound A111] and `CCC[C@H](NC(=O)O[C@H](c1ccccc1)C(F)(F)c1cccc(Cl)c1)C(=O)N[C@H](C=O)C[C@@H]1CCNC1=O` [Compound A208] are within 1.5-fold of each other in IC50: 2.8 nM for the first, 4 nM for the second.
